Several values for one entry are separate records, joined by “and”; a condition that tells them apart may be missing. Equal entries are not always repeated.
Experiments:
[1] = test system: IL-10 mRNA expression in AMJ2-C11 cells; assay: IL-10 mRNA expression by RT-PCR in AMJ2-C11 cells; type: cell-based, mouse; conditions: SR-stimulated 24 h, 80 μM
Procedure: The effect of nicotine or DMPP treatment on AMJ2-C11 cells was tested on TNF-α, IL-10 mRNA expression by RT-PCR. These cytokines are involved in the development of pulmonary inflammatory diseases such as HP, asthma and sarcoidosis (52-55). […] Reference is made to FIG. 3 where results are expressed as a % of expression, 100% being attributed to the LPS alone group. The intensity of the band was obtained by dividing the intensity of the TNF-α band by that of β-actin. […] Reference is made to FIG. 4 where results are expressed as described in FIG. 5.

[2] = test system: IFN-γ mRNA in T lymphocytes isolated from BAL; assay: IFN-γ mRNA in PHA-stimulated BAL lymphocytes from HP patients; type: cell-based, human
Procedure: Since one goal was to treat patients with DMPP or similar drugs, the effect of this drug was verified on lymphocytes from patients with HP. BAL were performed on patients with HP. Lymphocytes were isolated from the other BAL cells, stimulated with PHA and incubated with DMPP. The dose-response of DMPP were tested on cytokine mRNA production (by RT-PCR) for IFN-γ.

[3] = test system: CD86 expression on alveolar macrophages; assay: CD86 expression in SR-stimulated BAL cells of a normal patient; type: cell-based, human
Procedure: A broncho-alveolar lavage was performed on a normal patient, and alveolar macrophages were isolated.

[4] = test system: SR-induced inflammation in mice; assay: Short term SR-induced acute lung inflammation in mice, BAL cells; type: in vivo
Source text: (§1) The Intranasal instillation of Saccharopolyspora rectivirgula (SR) antigens, the causative agent for farmer's lung, to mice, induces a prominent inflammatory response in the lung. Neutrophils are the first inflammatory cells recruited at the site of inflammation.

TNF = TNF levels in BAL fluid of SR-instilled mice; type: in vivo; conditions: DMPP-treated mice, SR instillation
Source text: as §1

[5] = test system: allergic inflammation of the lungs in ovalbumin-sensitized mice; assay: Ovalbumin-sensitized mouse asthma model, BAL cell counts; type: in vivo, Balb/c mice
Procedure: (§2) Groups of Balb/c mice were sensitized by intra-peritoneal injection of 20 μg OVA protein (chicken egg albumin; Sigma-Aldrich) emulsified in 2 mg aluminum hydroxide in PBS. After 4 weeks, challenge doses of 1.5%/50 μl OVA were administered intranasally. The challenge was performed daily for 3 consecutive days and then the mice assessed for allergic inflammation of the lungs 24 h after the last aerosol exposure. Groups of mice were treated with various concentrations of DMPP during the challenge period. Broncho-alveolar lavage (BAL) was performed and the fluid centrifuged at 400 g to separate cells from liquid.
Ovalbumin-sensitized mice (n=8) were challenged with the allergen and simultaneously treated intra-nasally with increasing concentrations of ASM-002 (0.5 to 4 mg/kg/d) for 3 days. The number of cells recovered by broncho-alveolar lavage was used as a measure of lung inflammation.

IL-5 = assay: BAL IL-5 levels in the ovalbumin mouse asthma model; type: in vivo, Balb/c mice; conditions: 0.5 mg/kg treated-group
Procedure: as §2
The supernatants were used to determine lung IL-5 levels. The total, number of BAL cells and differential cell counts were evaluated.

IL-4 mRNA expression = IL-4 mRNA expression induced by a 24 h LPS stimulation; type: cell-based; conditions: LPS stimulation 24 h, 40 to 160 μM
Procedure: The effect of agonist treatment on mRNA expression of IL-4, a cytokine that is well known to be involved in the development of asthma, was also tested (53). […] Cells were treated with different doses (40 to 160 μM for both nicotine and DMPP).

blood eosinophils = assay: Blood eosinophil transmigration through an artificial basement membrane (Matrigel coated chemotaxis chamber); type: cell-based; conditions: purified blood eosinophils, Matrigel
Source text: Infiltration of eosinophils and other inflammatory cells into lung tissues is an important feature of asthma and the cause of airway inflammation and hyper-responsiveness. The passage of inflammatory cells from the circulation to the lung involves migration through the vascular endothelium, the basement membrane, and extra-cellular matrix components. Inflammatory cells cross the basement membrane by producing proteinases. In these preliminary in vitro experiments, the effects of various nicotinic agonists on the migration of purified blood eosinophils through an artificial basement membrane (Matrigel® coated chemotaxis chamber) were investigated. […] Results are expressed as a percentage of inhibition (agonists-treated cells) compared to the control condition without the agonists.

[6] = test system: collagen 1A mRNA expression by normal human lung fibroblasts; assay: Collagen A1 gene expression by RT-PCR in primary normal lung fibroblasts; type: cell-based; conditions: primary normal fibroblasts, RT-PCR
Procedure: Asthma is characterized by airway structural changes, including sub-epithelial collagen deposition, that may be a cause for the chronicity of the disease. An imbalance between collagen synthesis and its degradation by fibroblasts may be involved in this process (56). In preliminary experiments, we investigated the effects of nicotinic agonists on collagen A1 synthesis produced by primary normal fibroblasts. Collagen A1 gene expression was evaluated by RT-PCR.
The results are expressed percentage gene expression in agonists treated cells compared to non-treated cells.

[7] = test system: TNF release by human blood monocytes; assay: cells; type: cell-based; conditions: 40 μM, mean of 5 subjects
Procedure: Human monocytes were isolated from the blood of asthmatic patients by Ficoll-paque density gradient, let to adhere to tissue culture plates and stimulated with LPS (100 ng/ml) for 18 hours at 37° C. with or without increasing concentrations of nicotine. The release of TNF, a potent pro-inflammatory mediator, was measured in the cell culture supernatant by the ELISA method. Results are expressed as a percentage release from LPS-stimulated untreated cells (FIG. 28).
Tumor necrosis factor (TNF) is a mediator released in inflammatory states.
Human blood monocytes were isolated by Ficoll-paque density gradient, let to adhere to tissue culture plates and stimulated with LPS (100 ng/ml) for 18 hours at 37° C. with or without increasing concentrations of nicotine analogues.

[8] = test system: mouse tracheal airway smooth muscle; assay: Isometric study on isolated mouse tracheas pre-contracted with metacholine; conditions: cumulative doses, metacholine 10^−5
Procedure: Tracheal rings were mounted isometrically to force transducers in organ baths containing Krebs bicarbonate solution at 37° C. and bubbled with 95% O2-5% CO2, pre-contracted with submaximal concentration of metacholine (10^−5) and cumulative doses of the analogs were added to the baths. Changes of tension are recorded. Results are expressed as a percentage of maximal contraction (FIG. 29).
As described previously, tracheal or bronchial rings were mounted isometrically to force transducers in organ baths containing Krebs bicarbonate solution at 37° C. and bubbled with 95% O2-5% CO2, pre-contracted with submaximal concentration of metacholine cumulative doses of ASM-002 added. Changes of tension are recorded. Results are expressed as a percentage of maximal contraction for mouse (FIG. 34, p=0.002), dog (FIG. 35, p=0.004) and human (FIG. 36)

C[N+]1(C)CCN(c2ccccc2)CC1 [DMPP, Dimethylphenylpiperazinium]
reduction (drop) of IL-10 mRNA expression [1]: 87% and 90% | expression of IFN-γ mRNA [2]: reduced expression of IFN-γ | less CD86 expressed than non-treated cells ([3]; SR-stimulated BAL cells): 50% | expression of CD86 relative to non-treated cells ([3]; SR-stimulated alveolar macrophages): about half of the expression | effect on SR-induced inflammation (BAL cells) ([4]; intra-nasal every 6 h, 24 h after SR, DMPP 0.5 mg/kg, nicotine 0.5 mg/kg, epibatidine 2 μg/kg): marked inhibitory effect | effect on SR-induced lung inflammation compared to the non-treated group ([4]; number of mice increased to 15): significant inhibition | BALF TNF levels (TNF): decreased significantly | eosinophils and lymphocytes in BAL ([5]; first dose response, all groups (n=8; p<0.05)): significantly reduced | total cell counts in BAL ([5]; intra-peritoneal DMPP, 0.5 and 2.0 mg/kg doses, OVA challenged mice): significantly reduced | eosinophil and lymphocyte counts in BAL ([5]; second dose response, 0.1 and 0.5 mg/kg doses): significantly reduced | most effective dose for the anti-inflammatory effect ([5]; second dose response, IP): 0.5 mg/kg | IL-5 levels in BAL (IL-5): significant inhibitory effect | IL-4 mRNA expression (IL-4 mRNA expression): completely blocked | inhibition of eosinophil transmigration (blood eosinophils): dose-related inhibition | collagen A1 gene expression [6]: inhibits collagen A1 gene expression in a dose-dependent manner | TNF release [7]: inhibits TNF release | relaxation of tracheal smooth muscles pre-contracted with metacholine [8]: dose dependant relaxation
